Test results: ChEMBL document CHEMBL1201862, “PubChem BioAssay data set” (2004)
Calls of active or inactive are those of the source.

Experiments:
[1] = molecular target: T1, RNA-binding protein pos-1 (Caenorhabditis elegans, UniProt G5EF15); assay: disruptors of C. elegans POS-1 RNA interaction – biochemical, fluorescence polarization, dose response (AID 1964);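 also: purified POS-1 fused to maltose binding protein made in E. coli; potency of compounds blocking POS-1 binding to fluorescent RNA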
T1 sequence (G5EF15 whole entry): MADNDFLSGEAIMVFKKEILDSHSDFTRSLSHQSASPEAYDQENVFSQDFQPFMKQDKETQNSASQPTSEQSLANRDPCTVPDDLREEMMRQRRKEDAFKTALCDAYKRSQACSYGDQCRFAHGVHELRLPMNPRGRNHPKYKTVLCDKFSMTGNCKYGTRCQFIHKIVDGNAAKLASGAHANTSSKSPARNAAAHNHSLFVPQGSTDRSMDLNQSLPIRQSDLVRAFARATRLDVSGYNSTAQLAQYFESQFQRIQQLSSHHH

[2] = molecular target: T2, Zinc finger protein mex-5 (Caenorhabditis elegans, UniProt Q9XUB2); assay: potency of MEX-5 RNA-binding blockers – biochemical, C. elegans, fluorescence polarization, dose response (AID 1960)
T2 sequence (Q9XUB2 whole entry): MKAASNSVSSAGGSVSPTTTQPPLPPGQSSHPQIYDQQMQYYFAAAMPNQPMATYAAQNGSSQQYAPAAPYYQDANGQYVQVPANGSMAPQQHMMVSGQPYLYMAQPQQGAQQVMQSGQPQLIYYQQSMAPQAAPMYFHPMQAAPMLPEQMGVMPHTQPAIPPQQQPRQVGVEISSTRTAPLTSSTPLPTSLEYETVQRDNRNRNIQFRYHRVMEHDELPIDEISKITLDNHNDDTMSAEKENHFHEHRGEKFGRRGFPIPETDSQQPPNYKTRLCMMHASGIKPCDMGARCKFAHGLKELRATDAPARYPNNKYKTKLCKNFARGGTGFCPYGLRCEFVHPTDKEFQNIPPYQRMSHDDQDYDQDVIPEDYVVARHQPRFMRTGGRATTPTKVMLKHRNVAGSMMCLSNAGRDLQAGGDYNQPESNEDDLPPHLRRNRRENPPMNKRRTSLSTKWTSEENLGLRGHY

[3] = molecular target: Cytochrome P450 2D6 (Homo sapiens, UniProt P10635);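 also: CYP2D6 member of a cytochrome P450 panel assay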
[4] = molecular target: Cytochrome P450 3A4 (Homo sapiens, UniProt P08684);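 also: CYP3A4 tested as one member of a cytochrome P450 panel screen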
[5] = molecular target: T3, Protein skinhead-1 (Caenorhabditis elegans, UniProt P34707); assay type: functional
T3 sequence (P34707 whole entry): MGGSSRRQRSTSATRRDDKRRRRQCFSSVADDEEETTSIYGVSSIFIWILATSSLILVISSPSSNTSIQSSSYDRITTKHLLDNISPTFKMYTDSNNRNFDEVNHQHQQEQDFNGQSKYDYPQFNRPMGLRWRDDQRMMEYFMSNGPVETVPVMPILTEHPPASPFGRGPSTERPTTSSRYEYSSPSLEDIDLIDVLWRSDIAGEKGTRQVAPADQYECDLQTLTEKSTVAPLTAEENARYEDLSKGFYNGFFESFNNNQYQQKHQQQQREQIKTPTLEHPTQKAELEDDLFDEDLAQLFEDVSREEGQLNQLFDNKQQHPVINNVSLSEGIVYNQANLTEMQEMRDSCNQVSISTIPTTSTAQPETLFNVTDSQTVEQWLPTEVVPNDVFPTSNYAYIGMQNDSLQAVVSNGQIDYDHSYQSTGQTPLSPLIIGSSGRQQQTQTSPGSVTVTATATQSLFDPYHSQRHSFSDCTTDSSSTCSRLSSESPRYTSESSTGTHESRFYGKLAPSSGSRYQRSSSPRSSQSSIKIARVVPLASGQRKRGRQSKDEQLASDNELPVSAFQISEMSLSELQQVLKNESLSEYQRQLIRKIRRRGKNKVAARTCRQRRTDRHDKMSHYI

[6] = molecular target: T4, Polyadenylate-binding protein 1 (Homo sapiens, UniProt P11940); assay: MLLE binding blockers, Cy5 peptide tracer – biochemical, fluorescence polarization, Cy5-PAM2 peptide, secondary, miRNA deadenylation inhibitor project, dose response (AID 602260); assay type: functional; conditions: read-out: IC50_Mean
[7] = molecular target: T4, Polyadenylate-binding protein 1; assay: MLLE domain peptide-binding blockers, IC50 – biochemical, fluorescence polarization, FITC-PAM2 peptide, dose response (AID 602259); assay type: functional; conditions: read-out: IC50_Mean
[8] = Luminescence Cell-Based Dose Confirmation HTS to Identify Activators of 5'UTR Stem-Loop Driven Alpha-Synuclein mRNA Translation in H4 Neuroglioblastoma Cells. [Related pubchem assays: 1829 (Project Summary), 1814 (Primary HTS)]; assay type: functional
[9] = Luminescence Cell-Based Dose Response HTS to Identify Activators of Luciferase Translation or Activity in H4 […] Cells. [Related pubchem assays: 1829 (Project Summary), 1814 (Primary HTS)]; assay type: functional
[10] = test system: H4; assay: Luminescence Cell-Based Dose Response HTS to Identify Activators of 5'UTR Stem-Loop Driven Prion Protein mRNA Translation in H4 Neuroglioblastoma Cells. [Related pubchem assays: 1829 (Project Summary), 1814 (Primary HTS)]; assay type: functional; conditions: Homo sapiens
[11] = luciferase reporter signal suppression in cells – H4 neuroglioma cells, luminescence, dose response (AID 1990); assay type: functional, cell-based
[12] = Luminescence Cell-Based Dose Response HTS to Identify Inhibitors of 5'UTR Stem-Loop Driven Prion Protein mRNA Translation in H4 Neuroglioblastoma Cells. [Related pubchem assays: 1827 (Project Summary), 1813 (Primary HTS)]; assay type: functional
[13] = alpha-synuclein stem-loop luciferase translation blockers – H4 neuroglioma cells, luminescence, confirmation (AID 1988); assay type: functional, cell-based
[14] = molecular target: Cytochrome P450 2C19 (Homo sapiens, UniProt P33261); assay: Cytochrome panel assay with activity outcomes. Panel member name: p450-cyp2c19 Compounds with AC50 equal or less than 10 uM are considered active; assay type: functional; conditions: read-out: AC50
[15] = molecular target: Cytochrome P450 2C9 (Homo sapiens, UniProt P11712)
[16] = molecular target: T5, Cytochrome P450 1A2 (Homo sapiens, UniProt P05177);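 also: PubChem cytochrome P450 panel assay, CYP1A2 panel member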
T5 sequence (P05177 whole entry): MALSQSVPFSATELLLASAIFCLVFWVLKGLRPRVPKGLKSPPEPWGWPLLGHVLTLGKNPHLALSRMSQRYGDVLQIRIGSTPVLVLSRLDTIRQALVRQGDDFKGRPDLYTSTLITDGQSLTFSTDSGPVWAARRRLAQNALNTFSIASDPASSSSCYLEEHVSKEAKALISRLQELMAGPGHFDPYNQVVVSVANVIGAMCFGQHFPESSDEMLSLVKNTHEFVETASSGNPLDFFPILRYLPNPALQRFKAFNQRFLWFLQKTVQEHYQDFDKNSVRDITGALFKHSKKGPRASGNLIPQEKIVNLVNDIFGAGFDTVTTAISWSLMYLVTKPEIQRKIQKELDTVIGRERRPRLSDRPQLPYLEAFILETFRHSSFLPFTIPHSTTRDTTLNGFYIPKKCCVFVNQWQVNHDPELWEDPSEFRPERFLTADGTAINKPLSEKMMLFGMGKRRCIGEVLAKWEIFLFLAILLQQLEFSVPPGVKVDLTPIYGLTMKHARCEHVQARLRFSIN

[17] = viability of uninfected HEp-2 cells – cell-based, HTS, cytotoxicity control for RSV inhibitor project, dose response (AID 2410); assay type: functional; conditions: human respiratory syncytial virus

Sequence of Cytochrome P450 2D6 (P10635 whole entry): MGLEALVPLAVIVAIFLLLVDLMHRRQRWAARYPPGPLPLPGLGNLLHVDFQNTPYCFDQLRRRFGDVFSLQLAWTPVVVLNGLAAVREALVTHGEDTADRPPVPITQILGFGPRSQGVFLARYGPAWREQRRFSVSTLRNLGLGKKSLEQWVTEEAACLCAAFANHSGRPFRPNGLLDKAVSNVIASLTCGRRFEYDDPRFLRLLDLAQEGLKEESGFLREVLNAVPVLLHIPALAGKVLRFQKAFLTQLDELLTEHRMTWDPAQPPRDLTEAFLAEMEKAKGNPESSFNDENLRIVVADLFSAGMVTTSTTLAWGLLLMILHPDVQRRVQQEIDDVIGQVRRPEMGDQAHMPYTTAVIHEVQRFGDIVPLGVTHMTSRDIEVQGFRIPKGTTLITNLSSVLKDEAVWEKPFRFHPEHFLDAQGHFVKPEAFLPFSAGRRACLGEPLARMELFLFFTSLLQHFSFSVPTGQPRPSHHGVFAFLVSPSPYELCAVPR
T4 sequence (P11940 whole entry, the tested form may be a part): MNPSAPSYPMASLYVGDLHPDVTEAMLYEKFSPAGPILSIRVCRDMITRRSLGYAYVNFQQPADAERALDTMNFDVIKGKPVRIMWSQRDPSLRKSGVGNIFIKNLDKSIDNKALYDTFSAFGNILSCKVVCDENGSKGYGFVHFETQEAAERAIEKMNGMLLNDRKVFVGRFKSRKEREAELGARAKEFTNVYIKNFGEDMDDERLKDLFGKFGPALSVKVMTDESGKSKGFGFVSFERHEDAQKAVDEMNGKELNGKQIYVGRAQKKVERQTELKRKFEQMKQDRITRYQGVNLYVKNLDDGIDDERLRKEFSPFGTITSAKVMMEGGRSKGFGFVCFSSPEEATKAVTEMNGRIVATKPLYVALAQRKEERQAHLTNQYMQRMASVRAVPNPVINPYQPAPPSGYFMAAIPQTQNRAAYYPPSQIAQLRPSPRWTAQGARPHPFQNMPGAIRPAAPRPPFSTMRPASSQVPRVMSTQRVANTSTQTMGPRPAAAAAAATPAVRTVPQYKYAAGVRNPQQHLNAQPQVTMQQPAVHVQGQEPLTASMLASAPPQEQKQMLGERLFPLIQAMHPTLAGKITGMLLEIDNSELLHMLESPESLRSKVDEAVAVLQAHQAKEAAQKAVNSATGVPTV
Sequence of Cytochrome P450 2C19 (P33261 whole entry): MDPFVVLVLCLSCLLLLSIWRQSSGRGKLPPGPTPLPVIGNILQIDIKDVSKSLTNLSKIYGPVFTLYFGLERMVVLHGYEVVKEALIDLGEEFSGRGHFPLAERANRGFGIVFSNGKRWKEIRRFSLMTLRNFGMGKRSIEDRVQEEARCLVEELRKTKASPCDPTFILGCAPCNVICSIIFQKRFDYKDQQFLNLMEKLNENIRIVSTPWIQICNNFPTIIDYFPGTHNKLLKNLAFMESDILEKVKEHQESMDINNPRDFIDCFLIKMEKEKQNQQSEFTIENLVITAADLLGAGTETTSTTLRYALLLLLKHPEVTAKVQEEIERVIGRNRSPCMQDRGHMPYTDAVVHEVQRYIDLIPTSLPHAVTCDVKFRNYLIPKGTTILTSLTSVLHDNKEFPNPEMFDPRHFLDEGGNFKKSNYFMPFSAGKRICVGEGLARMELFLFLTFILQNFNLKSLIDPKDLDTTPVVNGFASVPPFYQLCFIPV
Sequence of Cytochrome P450 2C9 (P11712 whole entry): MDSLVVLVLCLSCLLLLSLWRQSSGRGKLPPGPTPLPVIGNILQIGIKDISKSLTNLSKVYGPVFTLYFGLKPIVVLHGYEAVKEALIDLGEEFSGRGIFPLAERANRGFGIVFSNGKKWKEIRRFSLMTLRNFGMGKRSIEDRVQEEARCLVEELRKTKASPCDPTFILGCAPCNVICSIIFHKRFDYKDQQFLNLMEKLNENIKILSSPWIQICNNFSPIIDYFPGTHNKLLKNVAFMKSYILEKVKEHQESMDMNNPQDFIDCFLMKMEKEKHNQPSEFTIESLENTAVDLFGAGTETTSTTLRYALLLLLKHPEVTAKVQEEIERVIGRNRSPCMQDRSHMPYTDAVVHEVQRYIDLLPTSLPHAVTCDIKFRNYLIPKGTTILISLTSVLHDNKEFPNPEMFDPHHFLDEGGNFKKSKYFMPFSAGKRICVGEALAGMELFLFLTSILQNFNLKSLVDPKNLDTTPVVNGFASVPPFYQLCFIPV
Sequence of Cytochrome P450 3A4 (P08684 whole entry): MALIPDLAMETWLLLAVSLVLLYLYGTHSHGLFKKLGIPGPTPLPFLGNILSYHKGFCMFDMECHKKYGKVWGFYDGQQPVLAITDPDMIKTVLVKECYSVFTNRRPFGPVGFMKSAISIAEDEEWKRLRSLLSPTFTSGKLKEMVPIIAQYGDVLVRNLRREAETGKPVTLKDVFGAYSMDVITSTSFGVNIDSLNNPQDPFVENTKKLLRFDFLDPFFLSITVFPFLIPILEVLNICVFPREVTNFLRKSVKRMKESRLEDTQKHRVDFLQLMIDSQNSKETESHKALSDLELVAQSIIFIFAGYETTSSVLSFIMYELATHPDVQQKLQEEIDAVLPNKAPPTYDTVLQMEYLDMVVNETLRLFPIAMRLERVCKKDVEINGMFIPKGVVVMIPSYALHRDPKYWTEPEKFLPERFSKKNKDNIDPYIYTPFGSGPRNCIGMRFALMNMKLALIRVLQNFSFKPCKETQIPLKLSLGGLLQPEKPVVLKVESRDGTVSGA

Compound: Cc1ccc(Nc2ccc([N+](=O)[O-])ccc2=O)cc1
- EC50 [1]: > 300 µM (not active)
- EC50 [2]: > 300 µM (not active)

Compound: Cc1n[nH]c(O)c1N=Nc1ccc(S(N)(=O)=O)cc1
- EC50 [1]: 78.9 µM (active)
- EC50 [2]: 9.43 µM (inconclusive)

Compound: FC(F)(F)c1cc(CN2CCC3(CCNCC3)CC2)cc(C(F)(F)F)c1
- AC50 [3]: 25.1 µM (inconclusive)
- AC50 [4]: 31.6 µM (inconclusive)

Compound: COCCNC(=O)C1Nc2ccc(C(F)(F)F)cc2C2C=CCC12 (centres undefined)
- EC50 [1]: > 300 µM (not active)
- EC50 [2]: > 300 µM (not active)

Compound: O=C(CSc1ncnc2scc(-c3ccc(Cl)cc3)c12)NCc1ccc2c(c1)OCO2
- IC50 [5]: > 100 µM (inactive)

Compound: S=C(Nc1ccc2nc(-c3ccccn3)c(-c3ccccn3)nc2c1)N1CCOCC1
- IC50 [6]: > 66 µM (inactive)
- IC50 [7]: 40.3 µM (inactive)

Compound: Cc1ccc2nc(-c3cccnc3)c(NC3CCCCC3)n2c1
- IC50 [6]: 41.4 µM (inactive)
- IC50 [7]: 34.7 µM (inactive)

Compound: FC(F)(F)C(F)(F)C(F)(F)c1nc2nc(Cl)c(Cl)[nH]c-2n1
- IC50 [6]: > 66 µM (inactive)
- IC50 [7]: > 66 µM (inactive)

Compound: CN(C)c1ccc(-n2cc3c(=O)n(C)c(=O)n(C)c3c2)cc1
- EC50 [8]: 45 µM (active)
- EC50 [9]: 21 µM (active)
- EC50 [10]: 42.3 µM (active)

Compound: CCCCn1c(SCC(=O)N2c3ccccc3CCc3ccccc32)nc2c1c(=O)n(C)c(=O)n2C
- EC50 [11]: > 120 µM (not active)
- EC50 [12]: 14.2 µM (active)
- EC50 [13]: 15 µM (active)

Compound: CCc1ccc(Nc2ncccc2C#N)cc1
- AC50 [3]: 20 µM (inconclusive)
- AC50 [4]: 28.2 µM (inconclusive)

Compound: O=C(Nc1ccc(Cl)cn1)c1ccccc1F
- IC50 [5]: 16.3 µM (active)

Compound: CC1(C)Cc2c(cnn2-c2cccc(F)c2)C(NC(=O)CSc2ccccn2)C1 (centres undefined)
- EC50 [1]: > 300 µM (not active)
- EC50 [2]: > 150 µM (not active)

Compound: O=C(Nc1ccc(Cl)cn1)c1cc2c(s1)-c1ccccc1OC2
- IC50 [5]: > 100 µM (inactive)

Compound: Cc1cc(N2CCN(S(=O)(=O)c3ccc(C)c(C)c3)CC2)c2ccccc2n1
- EC50 [11]: > 120 µM (not active)
- EC50 [12]: 50 µM (active)
- EC50 [13]: > 120 µM (not active)

Compound: FC(F)(F)c1cc(Oc2ccccc2Cl)nc(-c2ccccn2)n1
- EC50 [11]: 7.86 µM (active)
- EC50 [12]: > 120 µM (not active)
- EC50 [13]: 6.37 µM (active)

Compound: Cc1onc(-c2ccccc2Cl)c1C(=O)NCCn1ccc2ccccc21
- IC50 [5]: > 100 µM (inactive)

Compound: Sc1nnc(Cc2sc(-c3ccccc3)nc2-c2ccccc2)o1
- EC50 [11]: 18.9 µM (active)
- EC50 [12]: > 120 µM (not active)
- EC50 [13]: > 120 µM (not active)

Compound: COc1ccc(NC(=O)Nc2sc(NS(=O)(=O)c3ccccc3)nc2C)cc1
- IC50 [6]: > 66 µM (inactive)
- IC50 [7]: > 66 µM (inactive)

Compound: O=C(NCCc1ccccn1)c1ccc(S(=O)(=O)N2CCCCCC2)cc1
- IC50 [5]: > 100 µM (inactive)

Compound: Cc1nnc(O)nc1N/N=C/c1ccc(O)c([N+](=O)[O-])c1
- EC50 [1]: 169 µM (active)
- EC50 [2]: 65.5 µM (active)

Compound: CC(=O)c1cccc(NC(=S)NC(=O)c2ccccc2Br)c1
- IC50 [6]: > 66 µM (inactive)
- IC50 [7]: > 66 µM (inactive)

Compound: Brc1ccc(-c2nnc(-c3cccnc3)o2)cc1
- IC50 [5]: 25.1 µM (active)

Compound: COC1=C(OC)C(=O)c2ccccc2C1=O
- AC50 [14]: 31.6 µM (inconclusive)
- AC50 [3]: 39.8 µM (inconclusive)
- AC50 [15]: 39.8 µM (inconclusive)

Compound: Cc1cccc(N=Nc2c(O)[nH]c3ccc(Br)cc23)c1
- EC50 [1]: 68.3 µM (active)
- EC50 [2]: 26.9 µM (inconclusive)

Compound: O=C(c1csnn1)N1CCC2(CC1)CCN(c1ccccc1)CC2
- AC50 [3]: 7.94 µM (inconclusive)
- AC50 [16]: 15.8 µM (inconclusive)

Compound: Cc1cccc(NC(=O)NCCN2CCCCC2)c1
- IC50 [5]: > 100 µM (inactive)

Compound: O=C(NCCc1ccccc1)c1noc2c1CCc1ccccc1-2
- AC50 [3]: 2.51 µM (inconclusive)
- AC50 [15]: 7.08 µM (inconclusive)

Compound: CC(=O)Nc1ccc(S(=O)(=O)Nc2nnc(CC(C)(C)C)s2)cc1
- IC50 [6]: > 66 µM (inactive)
- IC50 [7]: > 66 µM (inactive)

Compound: O=C(NCSc1ccccc1)c1ccccc1
- IC50 [6]: > 66 µM (inactive)
- IC50 [7]: > 66 µM (inactive)

Compound: COc1ncnc2c1N=C1CC(C)(C)CC(NCCC(=O)O)=C1S2
- EC50 [1]: > 300 µM (not active)
- EC50 [2]: 13.8 µM (active)

Compound: N#CC(=Cc1cccs1)c1nc(-c2ccc(Cl)cc2)cs1
- IC50 [5]: > 100 µM (inactive)

Compound: COC(=O)CNC(=O)C1Nc2ccc(OC(F)(F)F)cc2C2C=CCC12 (centres undefined)
- EC50 [1]: > 300 µM (not active)
- EC50 [2]: > 300 µM (not active)

Compound: CC(C)OC(=O)c1nn2c(C(F)(F)F)cc(-c3ccc(Br)o3)nc2c1Br
- EC50 [1]: > 300 µM (not active)
- EC50 [2]: > 300 µM (not active)

Compound: O=C(NCc1ccc(Cl)cc1)c1ccc(-c2ccc(F)c(F)c2)c2ccoc12
- IC50 [5]: > 100 µM (inactive)

Compound: CSc1ccc(-c2cc(=O)c3ccccc3o2)cc1
- CC50 [17]: 18.7 µM (active)
- IC50 [5]: 23.9 µM (active)

Compound: CCc1c(O)nc(SCc2nc(O)c3ccccc3n2)nc1O
- IC50 [6]: > 66 µM (inactive)
- IC50 [7]: > 66 µM (inactive)

Compound: CCC(=O)/C=C1/Sc2ccc(OC)cc2N1CCO
- IC50 [6]: > 66 µM (inactive)
- IC50 [7]: > 66 µM (inactive)

Compound: N=c1nc(SCCC(=O)O)ss1
- EC50 [11]: 13.4 µM (active)
- EC50 [12]: 15.8 µM (active)
- EC50 [13]: 14 µM (active)

Compound: C/C(=N/OC(=O)c1cccc(Cl)c1)c1nccs1
- AC50 [14]: 20 µM (inconclusive)
- AC50 [3]: 35.5 µM (inconclusive)
- AC50 [16]: 31.6 µM (inconclusive)
